Results on eight compounds are retold here after patent US20220000919A1, “PLACENTAL DERIVED NATURAL KILLER CELLS FOR TREATMENT OF CORONAVIRUS INFECTIONS” (Celularity Inc., priority 2020, published 2022).

Structures are written as SMILES.

One series has as its system CD34+ cells. Put plainly: NK culture of CD34+ cells with CRL compounds: cell expansion and NK differentiation. In kind it is cell-based, human. The settings on record: for supported NK (PNK-007) expansion and differentiation: compound at 10 μM during the first 14 days of culture; for CD56+/CD11a+ subpopulation compared to SRI / expansion, differentiation and cytotoxicity profiles compared to SRI: PNK-007 culture, 10 μM; for cell expansion compared to SRI positive control at Day 35: compound and SRI at 10 μM; for CD34 cell expansion at Day 14 of the culture: compound at 10 μM. As to the method: Stage 1 medium: 90% Stem Cell Growth Medium (SCGM) (CellGro®), 10% Human Serum-AB, supplemented with 25 ng/mL or 250 ng/mL recombinant human thrombopoietin (TPO), 25 ng/mL recombinant human Flt3L, 27 ng/mL recombinant human stem cell factor (SCF), 25 ng/mL recombinant human IL-7, 0.05 ng/mL or 0.025 ng/mL recombinant human IL-6, 0.25 ng/mL or 0.125 ng/mL recombinant human granulocyte colony-stimulating factor (G-CSF), 0.01 ng/mL or 0.025 ng/mL recombinant human granulocyte-macrophage colony-stimulating factor (GM-CSF), 0.10% gentamicin, and 1 to 10 μm StemRegenin-1 (SR-1) or other stem cell mobilizing agent.
Stage 2 medium: 90% SCGM, 10% Human Serum-AB, supplemented with 25 ng/mL recombinant human Flt3L, 27 ng/mL recombinant human SCF, 25 ng/mL recombinant human IL-7, 20 ng/mL recombinant human IL-15, 0.05 ng/mL or 0.025 ng/mL recombinant human IL-6, 0.25 ng/mL or 0.125 ng/mL recombinant human granulocyte colony-stimulating factor (G-CSF), 0.01 ng/mL or 0.025 ng/mL recombinant human granulocyte-macrophage colony-stimulating factor (GM-CSF), 0.10% gentamicin, and 1 to 10 μm SRI or other stem cell mobilizing agent.
Stage 3 medium: 90% STEMMACS™, 10% Human Serum-AB, 0.025 mM 2-mercaptoethanol (55 mM), supplemented with 22 ng/mL recombinant human SCF, 1000 U/mL recombinant human IL-2, 20 ng/mL recombinant human IL-7, 20 ng/mL recombinant human IL-15, 0.05 ng/mL or 0.025 ng/mL recombinant human IL-6, 0.25 ng/mL or 0.125 ng/mL recombinant human granulocyte colony-stimulating factor (G-CSF), 0.01 ng/mL or 0.025 ng/mL recombinant human granulocyte-macrophage colony-stimulating factor (GM-CSF), and 0.10% gentamicin.
Cells are seeded at Day 0 at 3×10^4 cells/mL in Stage 1 media, and cells are tested for purity by a CD34+ and CD45+ count and viability by 7AAD staining. At Day 5 cells are counted and seeded to a concentration of 1×10^5 cells/mL with Stage 1 medium. At Day 7 cells are counted and seeded to a concentration of 1×10^5 cells/mL with Stage 1 medium.
At Day 10, cells are counted and seeded to a concentration of 1×10^5 cells/mL in Stage 2 medium. At Day 12, cells are counted and seeded to a concentration of 3×10^5 cells/mL in Stage 2 medium. At Day 14, cells are counted and seeded in Stage 3 medium. Cells are maintained in Stage 3 media until day 35.
UCB CD34+ cells were cultivated in presence of cytokines including thrombopoietin, SCF, Flt3 ligand, IL-7, IL-15 and IL-2 for 35 days to produce three-stage NK cells, as described in Example 1. Multi-color flow cytometry was used to determine the phenotypic characteristics of three-stage NK cells.
(§1) For biological testing, the compounds were provided to culture to evaluate their effects on NK cell expansion and differentiation. Specifically, donors of CD34+ cells (StemCell Technology) were thawed and expanded in vitro following NK culture protocol. During the first 14 days of the culture, each CRL compounds was dissolved in DMSO and added to the culture at 10 μM concentration. SRI (at 10 μM) served as a positive control compound, while DMSO alone without any compound served as a negative control. At the end of the culture on Day 35, cell expansion, natural killer (NK) cell differentiation and cytotoxicity of the cells against K562 tumor cell line were characterized. Due to the large number of the compounds, the testing was performed in two experiments, CRL1-11 and CRL 12-22. The same donors were used for each experiment. Positive and negative controls were also included in both experiments.

In a further series the test system is K562 tumor cells. Kind of series: Cytotoxicity assay of compound cultured cells against K562 tumor cells. It counts as cell-based. Particulars: K562, 10:1 effector to target ratio. As to the method:
as §1
Cytotoxicity assay was run using compound cultured cells against K562 tumor cells at 10:1 effector to target ratio (FIG. 5) to evaluate cell functions.

With `CCC(C)Nc1cc(-c2cncc(C#N)c2)nc(NCCc2c[nH]c3ccccc23)n1` (centres unmarked) [CRL7, 5-(2-((2-(1H-indol-3-yl)ethyl)amino)-6-(sec-butylamino)pyrimidin-4-yl)nicotinonitrile], the “supported NK (PNK-007) expansion and differentiation” value in the series on CD34+ cells was “all the compounds except CRL7 and CRL13 supported PNK-007 expansion and differentiation”.

On to `CCC(C)Nc1nc(NCCc2c[nH]c3ccccc23)c2ccccc2n1` (centres unmarked) [CRL13, N^4-(2-(1H-indol-3-yl)ethyl)-N^2-(sec-butyl)quinazoline-1,4-diamine], for which the “supported NK (PNK-007) expansion and differentiation” value in the series with CD34+ cells is “all the compounds except CRL7 and CRL13 supported PNK-007 expansion and differentiation”.

Consider `CC(C)c1csc2c(NCCc3c[nH]c4ccccc34)nc(-c3cncc(C#N)c3)nc12` [CRL17, 5-(4-((2-(1H-indol-3-yl)ethyl)amino)-7-isopropylthieno[3,2-d]pyrimidin-2-yl)nicotinonitrile], for which, in the series on CD34+ cells, the “CD56+/CD11a+ subpopulation compared to SRI” value is reported as “increased CD56+/CD11a+ subpopulation” and the “cell expansion compared to SRI positive control at Day 35” value is “slightly less expansion compared to SRI”. In addition, the “killing activities of cultured cells compared to those cultured with SRI” value in the series with K562 tumor cells is recorded as “increased killing activities of the cells”.

Turning to `CC(C)c1csc2c(NCCc3c[nH]c4ccccc34)nc(-c3cncc(F)c3)nc12` [CRL18, N-(2-(1H-indol-3-yl)ethyl)-2-(5-fluoropyridin-3-yl)-7-isopropylthieno[3,2-d]pyrimidin-4-amine], in the series with CD34+ cells, the “CD56+/CD11a+ subpopulation compared to SRI” value is reported as “increased CD56+/CD11a+ subpopulation” and the “cell expansion compared to SRI positive control at Day 35” value was “slightly less expansion compared to SRI”. Moreover, the “killing activities of cultured cells compared to those cultured with SRI” value with K562 tumor cells is “increased killing activities of the cells”.

For `Fc1cncc(-c2nc(NCCc3c[nH]c4ccccc34)c3occc3n2)c1` [CRL19, N-(2-(1H-indol-3-yl)ethyl)-2-(5-fluoropyridin-3-yl)furo[3,2-d]pyrimidin-4-amine], in the series with CD34+ cells, the “expansion, differentiation and cytotoxicity profiles compared to SRI” value was “very similar expansion, differentiation and cytotoxicity profiles as SRI”; the “CD34 cell expansion at Day 14 of the culture” value (“CD34 cell expansion” below) is on record as “highest CD34 cell expansion”.

For `Cc1cncc(-c2nc(NCCc3c[nH]c4ccccc34)c3occc3n2)c1` [CRL20, N-(2-(1H-indol-3-yl)ethyl)-2-(5-methylpyridin-3-yl)furo[3,2d]pyrimidin-4-amine], in the series on CD34+ cells, the “expansion, differentiation and cytotoxicity profiles compared to SRI” value is “very similar expansion, differentiation and cytotoxicity profiles as SRI”; the “CD34 cell expansion” value is “highest CD34 cell expansion”.

For the compound `Cc1cncc(-c2nc(NCCc3c[nH]c4ccccc34)c3scc(C(C)C)c3n2)c1` [CRL21, N-(2-(1H-indol-3-yl)ethyl)-7-isopropyl-2-(5-methylpyridin-3-yl)thieno[3,2-d]pyrimidin-4-amine], in the series with CD34+ cells, the “CD56+/CD11a+ subpopulation compared to SRI” value is “increased CD56+/CD11a+ subpopulation” and the “cell expansion compared to SRI positive control at Day 35” value is “slightly less expansion compared to SRI”. Moreover, the “killing activities of cultured cells compared to those cultured with SRI” value in the series on K562 tumor cells is listed as “increased killing activities of the cells”.

As for `N#Cc1cncc(-c2nc(NCCc3c[nH]c4ccccc34)c3occc3n2)c1` [CRL22, 5-(4-((2-(1H-indol-3-yl)ethyl)amino)furo[3,2-d]pyrimidin-2-yl)nicotinonitrile], in the series on CD34+ cells, the “expansion, differentiation and cytotoxicity profiles compared to SRI” value is “very similar expansion, differentiation and cytotoxicity profiles as SRI”; the “CD34 cell expansion” value is reported as “highest CD34 cell expansion”.
